Laboratory results: US6780972B2, “Method for the synthesis of peptide salts, their use and the pharmaceutical preparations, containing peptide salts” (Zentaris GmbH, priority 2000, dated 2004)
Non-standard residues stand in square brackets, D forms with d. Residues, ends and D or L forms follow the SMILES beside them. dPhe(4-Cl) = N[C@H](Cc1ccc(Cl)cc1)C(=O)O; d2Nal = N[C@H](Cc1ccc2ccccc2c1)C(=O)O; dCit = NC(=O)NCCC[C@@H](N)C(=O)O; d3Pal = N[C@H](Cc1cccnc1)C(=O)O

Key:
[1] = Cetrorelix plasma concentration and bioavailability after administration of the Cetrorelix embonate (2:1) lyophilysate in man (Clinical Phase I); assay type: in vivo
Protocol: (§1) The Cetrorelix embonate (2:1) lyophilysate (30 mg), obtained according to Example 1, is resuspended in 2 mL of water for injection purposes and can then be administered parenterally, preferable subcutaneously (s.c.) or intramuscularly (i.m.)
(§2) For the s.c. administration, the bioavailability of the Cetrorelix embonate (2:1) is about 30 to 50% (100%=intravenously administered Cetrolix acetate). […] The duration of the effect depends on the dose; for a dose of 30 to 150 mg, it is 2 to 8 weeks or longer. The inventive Cetrorelix embonate (2:1) lyophilysate has already been investigated in Clinical Phase I in man.
(§3) The period of action exceeded 700 hours. The plasma level was constant at about 2 ng/mL 150 hours after the administration. The bioavailability was abut 40%.

[2] = Duration of effect / period of action after administration in man; assay type: in vivo
Protocol: as §1, §2, §3

In the case of `CC(=O)N[C@H](Cc1ccc2ccccc2c1)C(=O)N[C@H](Cc1ccc(Cl)cc1)C(=O)N[C@H](Cc1cccnc1)C(=O)N[C@@H](CO)C(=O)N[C@@H](Cc1ccc(O)cc1)C(=O)N[C@H](CCCNC(N)=O)C(=O)N[C@@H](CC(C)C)C(=O)N[C@@H](CCCNC(=N)N)C(=O)N1CCC[C@H]1C(=O)N[C@H](C)C(N)=O` [Cetrorelix embonate (2:1), Cetrorelix embonate] (Ac-[d2Nal][dPhe(4-Cl)][d3Pal]SY[dCit]LRP[dA]-NH2; N-terminus and C-terminus assumed), the “burst effect (ca. 100 ng/mL)” value ([1]; 60 mg in man, FIG. 1) is reported as “could not be detected”, the bioavailability ([1]; human, in vivo, subcutaneous, s.c. administration, 100% = intravenously administered Cetrolix acetate) is reported as 30 to 50% and the bioavailability ([1]; human, plasma, 60 mg in man, FIG. 1) is reported as roughly 40%. The level at 150 h ([1]; human, plasma, 60 mg in man, constant 150 hours after the administration, FIG. 1) was roughly 2 ng/mL, the burst effect ([1]; in patients) was “slight or even absent” and the period of action ([2]; 60 mg in man, FIG. 1) was “exceeded 700 hours”. The “duration of the effect” value ([2]; dose of 30 to 150 mg, depends on the dose, 'or longer') was 2 to 8 weeks.
